Where a name gives a salt, the structure may show the parent alone.
Experiments:
[1] = Pharmacokinetic study of oral and intravenously injected compounds in CD-1 mouse; format: in vivo
Method: To assay the pharmacokinetics of oral and intravenously injected compounds in CD-1 mouse. The assay compound was mixed with 5% DMSO+95% (10% HP-β-CD) aqueous solution. The mixture was vortexed and sonicated to prepare a clear solution of 0.5 mg/mL (intravenous) or a clear solution of 3 mg/mL (oral). The clear solution was filtered by a microporous membrane for use. […] Whole blood was collected for a certain period of time, and prepared to obtain plasma. Drug concentration was analyzed by LC-MS/MS method, and pharmacokinetic parameters were calculated by Phoenix WinNonlin software (Pharsight, USA).

[2] = tested on: p-ERK in GP2D cells; test: Assay of p-ERK inhibition in GP2D cells (HTRF); format: cell-based; conditions: 1 hour incubation
Method: The cell plate was inoculated in a carbon dioxide incubator at 37° C. overnight; • 2) 2 μL of the compound was weighed and added to 78 μL of the cell medium. After the mixture was mixed thoroughly, 20 μL of the solution of compound was weighed and added to the corresponding well of the cell plate. The cell plate was placed back to the carbon dioxide incubator and incubated for another 1 hour; • 3) After completion of the incubation, the cell supernatant was discarded. 50 μL of 1× cell lysate was added to each well. The mixture was incubated with shaking at room temperature for 30 minutes; • 4) Phospho-ERK1/2 Eu Cryptate antibody and Phospho-ERK1/2 d2 antibody were diluted 20-fold with detection buffer; • 5) 16 μL of cell lysate supernatant was weighed and added into each well of a new 384 white microwell plate, and then 2 μL of the diluted solution of Phospho-ERK1/2 Eu Cryptate antibody and 2 μL of the diluted solution of Phospho-ERK1/2 d2 antibody dilution were added. The mixture was incubated at room temperature for at least 4 hours; • 6) After completion of the incubation, HTRF was read with multi-label analyzer: excitation: 320 nm, emission: 615 nm, 665 nm; • 7). IC50 of the compounds to be assayed was calculated.

[3] = tested on: KRAS^G12D AsPC-1; test: Anti-cell proliferation effect in tumor cell line AsPC-1 (CellTiter-Glo 3D); format: cell-based; conditions: Homo sapiens, ASPC1, AsPC-1, 120 hours
Method: (§1) In this assay, the effect of the compounds on inhibiting cell proliferation was studied by detecting the effect of the compounds on the cell activity in vitro in the tumor cell lines AsPC-1 and GP2D.
(§2) The tumor cell lines were cultured in a 37° C., 5% CO2 incubator according to the culture conditions indicated in the culture method. Cells were passaged regularly, and cells in logarithmic growth phase were used for plating.
(§3) Cells were stained with trypan blue and viable cells were counted.
(§4) The cell concentration was adjusted to an appropriate concentration.
(§5) To each well of a ULA culture plate was added 135 μL of cell suspension. To the blank control well was added the same volume of culture medium without cells.
(§6) After plating, the ULA culture plate was immediately centrifuged at room temperature at 1000 rpm for 10 minutes. Note: After completion of the centrifugation, subsequent operations must be processed carefully to avoid unnecessary shocks.
(§7) The culture plate was incubated in a 37° C., 5% CO2, 100% relative humidity incubator overnight.
(§8) 10× compound working solution (10× working solution in DMSO) was formulated, and then to the ULA culture plate was add 15 μL of 10× compound working solution, and to the vehicle control and blank control was added 15 μL of DMSO-cell culture medium mixture, respectively. […]
(§9) The luminescent signal was detected on a 2104 EnVision plate reader. […]

[4] = tested on: KRAS^G12D GP2D; test: Anti-cell proliferation effect in tumor cell line GP2D (CellTiter-Glo 3D); format: cell-based; conditions: 120 hours
Method: as §1, §2, §3, §4, §5, §6, §7, §8, §9

[5] = target: KRAS^G12D (Homo sapiens (Human), UniProt P01116, G12D); test: Assay of activity of inhibiting KRAS^G12D (TR-FRET, SOS/GTP nucleotide exchange); format: biochemical
Method: 20 mL of 1000 mM HEPES, 20 mL of 500 mM EDTA, 10 mL of 5 M sodium chloride, 0.1 mL of 100% Tween 20, and 949.9 mL of water were weighed and formulated to 1 L of solution. The solution was sterilized by filtration and stored at 4° C.
20 mL of 1000 mM HEPES, 10 mL of 1000 mM magnesium chloride, 30 mL of 5 M sodium chloride, 0.05 mL of 100% Tween 20, and 939.95 mL of water were weighed and formulated to 1 L of solution. The solution was sterilized by filtration and stored at 4° C.
9.5 μL of 95 μM KRAS^G12D protein and 440.5 μL of KRAS nucleotide exchange buffer were weighed and mixed. The mixture was incubated at room temperature for 1 hour, and then formulated to […] of solution together with 8.4 μL of 17.9 μM Tb-SA, 1.8 μL of 5 mM Bodipy GDP and 9539.8 μL of KRAS assay buffer. After mixing, the solution was left to stand at room temperature for 6 hours, and stored at −80° C. • b. Assay reagents:
73.3 μL of KRAS/Bodipy GDP/Tb-SA mixture and 2126.7 μL of KRAS assay buffer were weighed and formulated to 2200 μL of solution.
1.59 μL of 166 μM SOS protein, 198 μL of 100 mM GTP and 2000.41 μL of KRAS assay buffer were weighed and formulated to 2200 μL of solution.
• 1) The concentration of a stock solution of the control compound was 1 mM, and the concentration of a stock solution of compounds to be assayed was 10 mM. […]

[6] = male, CD-1, plasma, intravenous (IV), about 2 mg/kg
[7] = male, CD-1, plasma, oral (PO), about 30 mg/kg

Sequence of KRAS^G12D (P01116-2 other isoform, or with tags, fused parts or gaps G12D): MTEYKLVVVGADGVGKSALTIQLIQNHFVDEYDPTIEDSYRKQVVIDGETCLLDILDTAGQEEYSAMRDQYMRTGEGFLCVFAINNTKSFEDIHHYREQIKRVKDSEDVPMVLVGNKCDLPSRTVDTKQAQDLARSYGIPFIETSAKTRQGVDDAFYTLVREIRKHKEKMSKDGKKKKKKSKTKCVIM

SMILES | IC50 [2] [nM] | also measured
Nc1ccc(C(F)(F)F)c([C@H]2Cc3nc(OC[C@@]45CCCN4C[C@H](F)C5)nc(N4CC5CCC(C4)N5)c3CO2)c1F (single isomer, unassigned) [Compound 20B] | 1.3 | AUC(0-t) [1, 6]: 0.371 µM·h; C0 [1, 6]: 449 nM; Vd [1, 6]: 97.2 L/kg; clearance [1, 6]: 138 mL/min/kg; half-life [1, 6]: 672 min; AUC(0-inf) [1, 7]: 4.71 µM·h; Cmax [1, 7]: 2100 nM; half-life [1, 7]: 864 min; F ([1]; oral (PO), about 30 mg/kg, oral bioavailability): 85%
Cc1cc(N)c(F)c(C2Cc3nc(OC[C@@]45CCCN4C[C@H](F)C5)nc(N4CC5CC(C4)N5)c3CO2)c1C(F)(F)F (stereo partly shown) [Compound 2 hydrochloride] |  | IC50 [3]: 1860 nM; IC50 [4]: 332 nM
Cc1cc(N)c(F)c(C2Cc3nc(OC[C@@]45CCCN4C[C@H](F)C5)nc(N4CC5C=CC(C4)N5)c3CO2)c1C(F)(F)F (stereo partly shown) [Compound 7 hydrochloride] | 1.1 | IC50 [5]: 0.1 nM
Oc1cc(C2Cc3nc(OC[C@@]45CCCN4C[C@H](F)C5)nc(N4CC5CCC(C4)N5)c3CO2)c2ccccc2c1 (stereo partly shown) [Compound 8 hydrochloride] | 78 | IC50 [5]: 78.3 nM
Cc1cc(N)c(F)c(C2Cc3nc(OC[C@@]45CCCN4C[C@H](F)C5)nc(N4CC5CCC(C4)N5)c3CO2)c1C(F)(F)C(F)(F)F (stereo partly shown) [Compound 12 formate] | 20.9 | 
Cc1cc(N)c(F)c(C2Cc3nc(OC[C@@]45CCCN4C[C@H](F)C5)nc(N4CC5CCC(C4)N5)c3CO2)c1Cl (stereo partly shown) [Compound 14 hydrochloride] | 5.2 | 
Cc1cc(N)c(F)c(C2Cc3nc(OC[C@@]45CCCN4C[C@H](F)C5)nc(N4CC5CCC(C4)N5)c3CO2)c1Br (stereo partly shown) [Compound 15 hydrochloride] | 8.4 | 
Cc1cc(N)c(F)c(C2Cc3nc(OC[C@@]45CCCN4C[C@H](F)C5)nc(N4CC5CCC(C4)N5)c3CO2)c1I (stereo partly shown) [Compound 16 hydrochloride] | 2.9 | 
C#Cc1c(C)cc(N)c(F)c1C1Cc2nc(OC[C@@]34CCCN3C[C@H](F)C4)nc(N3CC4CCC(C3)N4)c2CO1 (stereo partly shown) [Compound 17] | 27.1 | 
Cc1cc(N)c(F)c(C2Cc3nc(OC[C@@]45CCCN4C[C@H](F)C5)nc(N4CC5CCC(C4)N5)c3CO2)c1C#N (stereo partly shown) [Compound 18] | 66.4 | 
C=Cc1c(C)cc(N)c(F)c1C1Cc2nc(OC[C@@]34CCCN3C[C@H](F)C4)nc(N3CC4CCC(C3)N4)c2CO1 (stereo partly shown) [Compound 19 hydrochloride] | 17.5 | 
Nc1cc(Cl)c(Br)c(C2Cc3nc(OC[C@@]45CCCN4C[C@H](F)C5)nc(N4CC5CCC(C4)N5)c3CO2)c1F (stereo partly shown) [Compound 21 hydrochloride] | 2.6 | 
Nc1cc(F)c(C(F)(F)F)c(C2Cc3nc(OC[C@@]45CCCN4C[C@H](F)C5)nc(N4CC5CCC(C4)N5)c3CO2)c1F (stereo partly shown) [Compound 22 hydrochloride] | 2.7 | 
Cc1cc(N)nc(C2Cc3nc(OC[C@@]45CCCN4C[C@H](F)C5)nc(N4CC5CCC(C4)N5)c3CO2)c1C(F)(F)F (stereo partly shown) [Compound 23 formate] | 23.4 | 
Cc1cc(N)c(F)c(C2Cc3nc(OC[C@@]45CCCN4C[C@H](F)C5)nc(N4CC5CCC(C4)N5)c3CO2)c1C (stereo partly shown) [Compound 25 hydrochloride] | 96.4 | 
Cc1cc(N)c(F)c(C2Cc3nc(OC[C@@]45CCCN4C[C@H](F)C5)nc(N4CC5CCC(C4)N5)c3CO2)c1C1CC1 (stereo partly shown) [Compound 27 hydrochloride] | 118 | 

— US20240327433A1, “PYRIMIDOPYRAN COMPOUND” (Medshine Discovery Inc., priority 2021, published 2024)
